From ChEMBL document CHEMBL1132937, “Protease inhibitors: synthesis of potent bacterial collagenase and matrix metalloproteinase inhibitors incorporating N-4-nitrobenzylsulfonylglycine hydroxamate moieties” (J Med Chem, 2000) come the findings set out here.

Bounds are passed on as bounds.

Assay [1] addresses Matrix metalloproteinase-9 (Homo sapiens, UniProt P14780).
Description: Inhibitory activity against the Matrix metalloprotease-9
Assay [2] deals with Neutrophil collagenase (Homo sapiens, UniProt P22894).
Description: Inhibitory activity against the Matrix Metalloprotease-8
Assay [3] concerns the target T1, Interstitial collagenase (Homo sapiens, UniProt P03956).
T1 sequence (P03956 whole entry): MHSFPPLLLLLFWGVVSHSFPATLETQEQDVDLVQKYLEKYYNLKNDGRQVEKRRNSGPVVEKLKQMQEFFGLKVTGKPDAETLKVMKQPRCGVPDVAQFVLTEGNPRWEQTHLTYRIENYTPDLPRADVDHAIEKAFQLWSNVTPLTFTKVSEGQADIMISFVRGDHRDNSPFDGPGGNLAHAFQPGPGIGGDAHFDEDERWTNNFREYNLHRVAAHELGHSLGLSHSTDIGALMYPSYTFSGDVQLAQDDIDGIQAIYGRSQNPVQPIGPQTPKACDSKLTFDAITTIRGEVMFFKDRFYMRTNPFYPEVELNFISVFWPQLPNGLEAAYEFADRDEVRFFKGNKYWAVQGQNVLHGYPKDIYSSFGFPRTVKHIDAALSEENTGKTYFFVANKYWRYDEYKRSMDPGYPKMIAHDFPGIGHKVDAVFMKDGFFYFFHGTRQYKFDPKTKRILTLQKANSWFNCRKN
Description: Inhibitory activity against the Matrix Metalloprotease 1 (MMP-1)

Assay [4] deals with 72 kDa type IV collagenase (Homo sapiens, UniProt P08253).
72 kDa type IV collagenase, sequence (P08253 whole entry): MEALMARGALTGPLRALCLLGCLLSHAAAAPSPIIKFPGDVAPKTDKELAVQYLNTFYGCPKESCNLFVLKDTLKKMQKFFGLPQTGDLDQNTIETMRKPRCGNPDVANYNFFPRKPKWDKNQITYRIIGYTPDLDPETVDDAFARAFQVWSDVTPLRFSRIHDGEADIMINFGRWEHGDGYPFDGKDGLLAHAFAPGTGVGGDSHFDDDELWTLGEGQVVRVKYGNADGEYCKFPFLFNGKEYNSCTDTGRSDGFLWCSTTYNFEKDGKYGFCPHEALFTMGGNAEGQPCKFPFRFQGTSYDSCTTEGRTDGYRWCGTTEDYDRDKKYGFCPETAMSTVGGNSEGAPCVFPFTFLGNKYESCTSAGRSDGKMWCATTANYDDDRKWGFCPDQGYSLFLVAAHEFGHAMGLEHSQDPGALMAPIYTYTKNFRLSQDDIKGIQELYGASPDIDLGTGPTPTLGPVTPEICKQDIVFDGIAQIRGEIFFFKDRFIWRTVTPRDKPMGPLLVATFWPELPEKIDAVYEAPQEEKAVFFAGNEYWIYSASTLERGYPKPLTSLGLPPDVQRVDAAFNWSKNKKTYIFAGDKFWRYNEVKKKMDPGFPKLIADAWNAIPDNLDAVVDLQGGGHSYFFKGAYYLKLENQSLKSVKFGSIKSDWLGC
Description: Inhibitory activity against the Matrix Metalloprotease 2 (MMP-2)

Matrix metalloproteinase-9, sequence (P14780 whole entry): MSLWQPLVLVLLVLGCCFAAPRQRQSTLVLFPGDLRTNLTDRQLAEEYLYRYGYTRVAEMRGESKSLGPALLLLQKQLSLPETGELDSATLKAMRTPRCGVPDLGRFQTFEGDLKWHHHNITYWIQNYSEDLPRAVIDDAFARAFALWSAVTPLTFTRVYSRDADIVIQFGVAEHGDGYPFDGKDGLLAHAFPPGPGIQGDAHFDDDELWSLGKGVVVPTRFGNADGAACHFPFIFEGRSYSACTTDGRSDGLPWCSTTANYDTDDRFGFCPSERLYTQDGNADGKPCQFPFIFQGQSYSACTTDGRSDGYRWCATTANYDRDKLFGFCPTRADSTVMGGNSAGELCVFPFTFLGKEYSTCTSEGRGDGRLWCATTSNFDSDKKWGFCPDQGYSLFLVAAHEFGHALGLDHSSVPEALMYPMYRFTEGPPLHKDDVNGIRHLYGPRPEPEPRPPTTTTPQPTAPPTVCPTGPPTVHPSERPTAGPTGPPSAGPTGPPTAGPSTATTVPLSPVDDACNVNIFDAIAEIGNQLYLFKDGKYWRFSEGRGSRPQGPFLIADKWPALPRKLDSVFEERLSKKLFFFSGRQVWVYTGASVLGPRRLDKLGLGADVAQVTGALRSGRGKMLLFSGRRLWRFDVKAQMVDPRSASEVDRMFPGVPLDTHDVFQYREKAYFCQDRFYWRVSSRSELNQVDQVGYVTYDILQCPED
Neutrophil collagenase, sequence (P22894 whole entry): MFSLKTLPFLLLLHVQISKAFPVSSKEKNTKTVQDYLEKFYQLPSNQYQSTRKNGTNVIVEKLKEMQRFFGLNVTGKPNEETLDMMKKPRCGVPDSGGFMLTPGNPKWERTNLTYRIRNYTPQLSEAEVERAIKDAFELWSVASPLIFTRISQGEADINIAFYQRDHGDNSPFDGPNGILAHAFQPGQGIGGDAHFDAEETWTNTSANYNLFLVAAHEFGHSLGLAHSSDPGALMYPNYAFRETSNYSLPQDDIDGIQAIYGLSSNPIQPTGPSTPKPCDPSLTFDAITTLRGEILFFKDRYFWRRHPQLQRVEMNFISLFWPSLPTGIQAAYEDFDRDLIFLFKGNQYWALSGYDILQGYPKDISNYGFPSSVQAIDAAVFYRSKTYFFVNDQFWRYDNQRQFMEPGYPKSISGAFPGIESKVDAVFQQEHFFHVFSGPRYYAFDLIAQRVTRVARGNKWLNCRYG

In the case of `O=C(CN(Cc1ccc([N+](=O)[O-])cc1)S(=O)(=O)c1ccc(F)cc1)NO`, the Ki in assay [1] came to 14 nM; in assay [2] it was 15 nM; in assay [3], 19 nM; in assay [4], 15 nM.

As for `O=C(CN(Cc1ccc([N+](=O)[O-])cc1)S(=O)(=O)c1ccc(NC(=O)NS(=O)(=O)c2ccccc2)cc1)NO`, the Ki stood at 0.9 nM in assay [1], 0.7 nM in assay [2], 61 nM in assay [3] and 0.6 nM in assay [4].

As to `O=C(O)CN(Cc1ccc([N+](=O)[O-])cc1)S(=O)(=O)c1ccc(NC(=O)NS(=O)(=O)c2ccc(Cl)cc2)cc1`, the Ki was 36 nM in assay [1], 24 nM in assay [2], 95 nM in assay [3] and 21 nM in assay [4].

As for `O=C(CN(Cc1ccc([N+](=O)[O-])cc1)S(=O)(=O)c1cccc(C(=O)O)c1)NO`, the Ki in assay [1] was determined as 2.5 nM; in assay [2] it was 3.3 nM; in assay [3] it was 41 nM; in assay [4], 3 nM.

For `O=C(CN(Cc1ccc([N+](=O)[O-])cc1)S(=O)(=O)c1ccc(C(=O)O)cc1)NO`, the Ki in assay [1] is 2.8 nM; in assay [2], 2.4 nM; in assay [3] it was 34 nM; in assay [4], 2.5 nM.

As to `O=C(CN(Cc1ccc([N+](=O)[O-])cc1)S(=O)(=O)c1cccc(NC(=O)NS(=O)(=O)c2ccc(Cl)cc2)c1)NO`, the Ki in assay [1] worked out at 1.6 nM; in assay [2], 1.3 nM; in assay [3], 50 nM; in assay [4], 1.5 nM.

Turning to `O=C(CN(Cc1ccc([N+](=O)[O-])cc1)S(=O)(=O)c1ccc([N+](=O)[O-])c(Cl)c1)NO`, the Ki is 7 nM in assay [1], 6 nM in assay [2], 31 nM in assay [3] and 7 nM in assay [4].

With `O=C(CN(Cc1ccc([N+](=O)[O-])cc1)S(=O)(=O)c1ccc(I)cc1)NO`, the Ki stood at 16 nM in assay [1], 17 nM in assay [2], 29 nM in assay [3] and 19 nM in assay [4].

As for `O=C(CN(Cc1ccc([N+](=O)[O-])cc1)S(=O)(=O)c1ccccc1[N+](=O)[O-])NO`, the Ki in assay [1] stood at 14 nM; in assay [2], 13 nM; in assay [3], 59 nM; in assay [4], 15 nM.

For the compound `O=C(CN(Cc1ccc([N+](=O)[O-])cc1)S(=O)(=O)c1ccc(NC(=O)NS(=O)(=O)c2ccc(Cl)cc2)cc1)NO`, the Ki was determined as 1 nM in assay [1], 1.1 nM in assay [2], 50 nM in assay [3] and 0.8 nM in assay [4].

Consider `Cc1cc(C)c(S(=O)(=O)N(CC(=O)NO)Cc2ccc([N+](=O)[O-])cc2)c(C)c1`, for which the Ki worked out at 39 nM in assay [1], 29 nM in assay [2], 36 nM in assay [3] and 25 nM in assay [4].

`O=C(CN(Cc1ccc([N+](=O)[O-])cc1)C(=O)Nc1ccc(Cl)c(Cl)c1)NO`: the Ki turned out to be 7 nM in assay [1], 5 nM in assay [2], 31 nM in assay [3] and 6 nM in assay [4].

On to `Cc1ccccc1S(=O)(=O)NC(=O)Nc1cccc(S(=O)(=O)N(CC(=O)NO)Cc2ccc([N+](=O)[O-])cc2)c1`, for which the Ki is 3 nM in assay [1], 2 nM in assay [2], 58 nM in assay [3] and 2.8 nM in assay [4].

As for `O=C(O)CN(Cc1ccc([N+](=O)[O-])cc1)S(=O)(=O)c1cccc(NC(=O)NS(=O)(=O)c2ccc(F)cc2)c1`, the Ki in assay [1] was 18 nM; in assay [2] it was 34 nM; in assay [3], more than 100 nM; in assay [4], 15 nM.

Turning to `O=C(O)CN(Cc1ccc([N+](=O)[O-])cc1)S(=O)(=O)c1ccc(NC(=O)NS(=O)(=O)c2ccccc2)cc1`, the Ki in assay [1] was 21 nM; in assay [2] it was 23 nM; in assay [3], more than 100 nM; in assay [4], 18 nM.

Turning to `CN(C)c1cccc2c(S(=O)(=O)N(CC(=O)NO)Cc3ccc([N+](=O)[O-])cc3)cccc12`, the Ki in assay [1] is 53 nM; in assay [2], 58 nM; in assay [3], 83 nM; in assay [4], 41 nM.

As for `O=C(CN(Cc1ccc([N+](=O)[O-])cc1)S(=O)(=O)c1cccc(NC(=O)NS(=O)(=O)c2ccccc2)c1)NO`, the Ki in assay [1] turned out to be 1.3 nM; in assay [2] it was 1 nM; in assay [3] it was 60 nM; in assay [4], 1.2 nM.

With `O=C(CN(Cc1ccc([N+](=O)[O-])cc1)C(=S)NC(=O)c1ccccc1)NO`, the Ki in assay [1] was 1.4 nM; in assay [2], 1.5 nM; in assay [3] it was 37 nM; in assay [4], 2 nM.

As to `COc1ccc(S(=O)(=O)N(CC(=O)NO)Cc2ccc([N+](=O)[O-])cc2)cc1NC(=O)OC(C)(C)C`, the Ki amounted to 7 nM in assay [1], 7 nM in assay [2], 25 nM in assay [3] and 5 nM in assay [4].

`CS(=O)(=O)N(CC(=O)NO)Cc1ccc([N+](=O)[O-])cc1`: the Ki was 30 nM in assay [1], 24 nM in assay [2], 75 nM in assay [3] and 19 nM in assay [4].

Take `Cc1ccccc1S(=O)(=O)NC(=O)Nc1ccc(S(=O)(=O)N(CC(=O)NO)Cc2ccc([N+](=O)[O-])cc2)cc1`: the Ki amounted to 0.7 nM in assay [1], 1.5 nM in assay [2], 72 nM in assay [3] and 1.6 nM in assay [4].

In the case of `O=C(CN(Cc1ccc([N+](=O)[O-])cc1)C(=O)Nc1cccc2ccccc12)NO`, the Ki in assay [1] is 33 nM; in assay [2] it was 39 nM; in assay [3] it was more than 100 nM; in assay [4], 35 nM.

In the case of `Cc1ccc(S(=O)(=O)NC(=O)N(CC(=O)NO)Cc2ccc([N+](=O)[O-])cc2)cc1`, the Ki in assay [1] was found to be 8 nM; in assay [2] it was 6 nM; in assay [3] it was 54 nM; in assay [4], 6 nM.

As for `CC(C)(C)OC(=O)Nc1ccc(S(=O)(=O)N(CC(=O)NO)Cc2ccc([N+](=O)[O-])cc2)cc1`, the Ki worked out at 10 nM in assay [1], 11 nM in assay [2], 17 nM in assay [3] and 10 nM in assay [4].

On to `CC(C)(C)OC(=O)Nc1cccc(S(=O)(=O)N(CC(=O)NO)Cc2ccc([N+](=O)[O-])cc2)c1`, for which the Ki in assay [1] was 14 nM; in assay [2], 15 nM; in assay [3] it was 26 nM; in assay [4], 11 nM.

On to `O=C(CN(Cc1ccc([N+](=O)[O-])cc1)S(=O)(=O)c1ccc([N+](=O)[O-])cc1)NO`, for which the Ki was 8 nM in assay [1], 7 nM in assay [2], 15 nM in assay [3] and 9 nM in assay [4].

Regarding `CN(C)S(=O)(=O)N(CC(=O)NO)Cc1ccc([N+](=O)[O-])cc1`, the Ki worked out at 43 nM in assay [1], 35 nM in assay [2], 26 nM in assay [3] and 36 nM in assay [4].

`O=C(CN(Cc1ccc([N+](=O)[O-])cc1)S(=O)(=O)c1ccc(NC(=O)NS(=O)(=O)c2ccc(F)cc2)cc1)NO`: the Ki in assay [1] is 1.2 nM; in assay [2], 0.5 nM; in assay [3], 54 nM; in assay [4], 0.6 nM.

Consider `CC(=O)Nc1ccc(S(=O)(=O)N(CC(=O)NO)Cc2ccc([N+](=O)[O-])cc2)cc1`, for which the Ki in assay [1] was 12 nM; in assay [2], 9 nM; in assay [3], 14 nM; in assay [4], 8 nM.

With `O=C(CN(Cc1ccc([N+](=O)[O-])cc1)S(=O)(=O)C(F)(F)C(F)(F)C(F)(F)C(F)(F)C(F)(F)C(F)(F)C(F)(F)C(F)(F)F)NO`, the Ki in assay [1] turned out to be 1.3 nM; in assay [2], 1.3 nM; in assay [3], 79 nM; in assay [4], 0.9 nM.

In the case of `O=C(CN(Cc1ccc([N+](=O)[O-])cc1)S(=O)(=O)c1ccc(Br)cc1)NO`, the Ki in assay [1] was 21 nM; in assay [2], 21 nM; in assay [3], 25 nM; in assay [4], 13 nM.

Consider `O=C(CN(Cc1ccc([N+](=O)[O-])cc1)S(=O)(=O)c1cc(Cl)ccc1Cl)NO`, for which the Ki was found to be 17 nM in assay [1], 13 nM in assay [2], 9 nM in assay [3] and 10 nM in assay [4].

On to `O=C(CN(Cc1ccc([N+](=O)[O-])cc1)C(=O)NS(=O)(=O)c1ccc(Cl)cc1)NO`, for which the Ki in assay [1] amounted to 5 nM; in assay [2], 4 nM; in assay [3], 46 nM; in assay [4], 3 nM.

Take `O=C(CN(Cc1ccc([N+](=O)[O-])cc1)S(=O)(=O)c1cccs1)NO`: the Ki was 10 nM in assay [1], 12 nM in assay [2], 14 nM in assay [3] and 13 nM in assay [4].

On to `O=C(CN(Cc1ccc([N+](=O)[O-])cc1)S(=O)(=O)c1cccc(NC(=O)NS(=O)(=O)c2ccc(F)cc2)c1)NO`, for which the Ki is 2.5 nM in assay [1], 1.4 nM in assay [2], 49 nM in assay [3] and 1.8 nM in assay [4].

For the compound `O=C(CN(Cc1ccc([N+](=O)[O-])cc1)S(=O)(=O)c1cccc(C(F)(F)F)c1)NO`, the Ki stood at 0.8 nM in assay [1], 0.7 nM in assay [2], 5 nM in assay [3] and 1.1 nM in assay [4].

With `O=C(CN(Cc1ccc([N+](=O)[O-])cc1)C(=O)NS(=O)(=O)c1ccccc1)NO`, the Ki in assay [1] is 3 nM; in assay [2] it was 4 nM; in assay [3], 39 nM; in assay [4], 5 nM.

Turning to `O=C(CN(Cc1ccc([N+](=O)[O-])cc1)S(=O)(=O)C(Cl)(Cl)Cl)NO`, the Ki in assay [1] is 25 nM; in assay [2] it was 19 nM; in assay [3], 24 nM; in assay [4] it was 17 nM.
